In patent US8778985B2, “Inhibiting amyloid-beta peptide/rage interaction at the blood-brain barrier” (The University of Rochester, priority 2006, dated 2014):

How the values were obtained:
[1] = test system: APPsw+/− mice; assay: Resting CBF by laser-doppler flowmetry, acute FPS2 treatment of APPsw+/− mice; assay type: in vivo; conditions: 1 mg/kg intravenous bolus, 7-9 months old mice
Description: Cerebral blood flow changes expressed as a percentage of baseline recorded over a 90 min period in mice administered FPS2 (filled triangle) or vehicle (filled square). FPS2 (1 mg/kg) was administered intravenously (arrow) as a bolus in 7-9 months old mice. Values are means±s.e.m, n=3 per group.
(§1) APPsw^+/− mice were treated with FPS2 (1 mg/kg) or with vehicle daily by intraperitoneal injection for two months starting at 8 months old. At the end of the treatment period functional changes in cerebral blood flow (CBF) to brain activation, and memory tests were determined. Brain and plasma Aβ levels were also determined in FPS2 and vehicle treated mice. […]
(§2) Compounds were synthesized in parallel using semiautomated chemical reactions. […] Purity was assessed by reverse-phase gradient HPLC. […] After two months of treatment, (i) the cerebral blood flow response to brain activation (whisker stimulation) was measured and (ii) behavioral tests including operant learning, novel object location (NOL), and novel object recognition (NOR) were performed. After these functional tests, the mice were sacrificed and their brains analyzed for Aβ40, Aβ42, and amyloid levels. • CBF response to brain activation. The CBF response to vibrissal stimulation in anesthetized APPsw^+/− mice was measured by using laser-doppler flowmetry (Transonic Systems, BLF 21 D). […]

[2] = test system: APPsw+/− mice; assay: Memory testing: novel object location and novel object recognition, chronic treatment of APPsw+/− mice; assay type: in vivo; conditions: 1 mg/kg per day i.p. for two months from 8 months of age
Description: (A) Percent increase in cerebral blood flow (CBF) in response to brain activation in mice treated with vehicle (open bar) or FPS2 (closed bar). (B-C) novel object location (B) and novel object recognition (C) expressed as percent exploratory preference in APPsw^+/− mice treated with vehicle (open bar) or FPS2 (closed bar). FPS2 (1 mg/kg per day) was intraperitoneally administered for two months beginning at the age of 8 months old mice. Values are means±s.e.m, n=5-6 per group.
as §1
as §2, with “activation.” for “activation. The CBF response to vibrissal stimulation in anesthetized APPsw^+/− mice was measured by using laser-doppler flowmetry (Transonic Systems, BLF 21 D).”

CC(CC(=O)NCCCN(C(=O)c1cc([N+](=O)[O-])cc([N+](=O)[O-])c1)c1ccccc1)CC(C)(C)C (stereo not shown) [FPS2, 3,5-dinitro-N-phenyl-N-[3-[(3,5,5-trimethyl-1-oxohexyl)amino]propyl]-(9Cl)-benzamide]
time of peak of resting CBF increase [1]: 25 to 30 min | transient increase of resting CBF [1]: about 35% | memory, novel object location [2]: significantly increased | memory, novel object recognition [2]: significantly increased
